# According to patent US4136173A (priority 1977, dated 1979):
# Counter-ions that a name gives are not always drawn.
# Assays:
# [1] = test system: neuroleptically treated rats; experiment: ovulation after subcutaneous LH-RH in neuroleptically treated rats; assay type: in vivo, rat
# Description: I. -- Formulations containing the polypeptide, gonadorelin also known as luteinizing hormone-releasing hormone (LH-RH) were evaluated for potency.
# Prepared by hydrating each gum separately at 80° C. for 30 minutes and treated with a cell disrupter for 2 minutes. The gum solutions were mixed in the presence of hydrochloric acid by adjusting the pH to 3. Chlorobutanol was then dissolved in the mixed gum solution and filtered. LH-RH was then dissolved in the gum solution over a dose range of 0 to 500 nanograms.
# The test solutions were administered subcutaneously to neuroleptically treated rats.
# [2] = intranasal evaluation of LH-RH gum formulations; assay type: in vivo; settings: 2% LH-RH, […] locust bean gum, […] xanthan gum, 0.5-1% phenylethyl alcohol
# Description: II. -- Formulations containing 2% LH-RH, 0.25% locust bean gum, 0.25% xanthan gum, and 0.5-1% phenylethyl alcohol were also prepared and evaluated intranasally.
# Rabbits' eyes = experiment: average miotic response intensity (pilocarpine hydrochloride formulations); assay type: in vivo, rabbit
# Description: rabbit's eyes were treated with 2 drops of the test solution, and pupillary diameters were measued with a cathetometer. The miotic response intensity was computed by taking the difference in pupillary diameters at zero time and time "T" (i.e., hours after instillation) and dividing it by the pupillary diameter at zero time. The table below illustrates the average miotic response for all eyes as a function of hours after instillation.
# Formulations containing pilocarpine hydrochloride were prepared as in Example 2 and are illustrated as follows: […]
structure (smiles),measurement,setting,value
CC(C)C[C@H](NC(=O)CNC(=O)[C@H](Cc1ccc(O)cc1)NC(=O)[C@H](CO)NC(=O)[C@H](Cc1c[nH]c2ccccc12)NC(=O)[C@H](Cc1cnc[nH]1)NC(=O)[C@@H]1CCC(=O)N1)C(=O)N[C@@H](CCCNC(=N)N)C(=O)N1CCC[C@H]1C(=O)NCC(N)=O [LH-RH],Number of Ova Found,"[1]; 31 NG s.c., Control (No Gums)",0
same,Number of Rats Ovulating,"[1]; 31 NG s.c., Control (No Gums)",0/10
same,Number of Ova Found,"[1]; 31 NG s.c., with 0.5% Gums",0
same,Number of Rats Ovulating,"[1]; 31 NG s.c., with 0.5% Gums",0/10
same,Number of Ova Found,"[1]; 62 NG s.c., Control (No Gums)",7
same,Number of Rats Ovulating,"[1]; 62 NG s.c., Control (No Gums)",2/10
same,Number of Ova Found,"[1]; 62 NG s.c., with 0.5% Gums",8.7 ± 1.4
same,Number of Rats Ovulating,"[1]; 62 NG s.c., with 0.5% Gums",3/10
same,Number of Ova Found,"[1]; 125 NG s.c., Control (No Gums)",8 ± 1.2
same,Number of Rats Ovulating,"[1]; 125 NG s.c., Control (No Gums)",5/10
same,Number of Ova Found,"[1]; 125 NG s.c., with 0.5% Gums",10.6 ± 0.6
same,Number of Rats Ovulating,"[1]; 125 NG s.c., with 0.5% Gums",7/10
same,Number of Ova Found,"[1]; 250 NG s.c., Control (No Gums)",10.1 ± 0.5
same,Number of Rats Ovulating,"[1]; 250 NG s.c., Control (No Gums)",8/10
same,Number of Ova Found,"[1]; 250 NG s.c., with 0.5% Gums",11.2 ± 0.7
same,Number of Rats Ovulating,"[1]; 250 NG s.c., with 0.5% Gums",9/10
same,Number of Ova Found,"[1]; 500 NG s.c., Control (No Gums)",10.5 ± 0.6
same,Number of Rats Ovulating,"[1]; 500 NG s.c., Control (No Gums)",10/10
same,Number of Ova Found,"[1]; 500 NG s.c., with 0.5% Gums",11.5 ± 0.5
same,Number of Rats Ovulating,"[1]; 500 NG s.c., with 0.5% Gums",10/10
same,LH release and induction of ovulation,"[1]; s.c., fluphenazine dihydrochloride pre-treated proestrous rats",released LH and subsequently induced ovulation
same,LH-RH release after intranasal administration,[2],stimulates LH-RH release at a level greater than formulations without the mixed gums
CC[C@@H]1C(=O)OC[C@@H]1Cc1cncn1C [pilocarpine],possible reduction of dose with gums,Rabbits' eyes; combined use of locust bean and xanthan gums,up to one fifth
CC[C@@H]1C(=O)OC[C@@H]1Cc1cncn1C [pilocarpine hydrochloride],potentiation of miotic response by gums,Rabbits' eyes; combined locust bean and xanthan gums,potentiate the miotic response
